# Results as given in patent publication US10597388B2, “Pyridazinone herbicides” (FMC CORPORATION, priority 2014, dated 2020).
# Columns and labels:
# Type in all cases: in vivo
# [1] = system: velvetleaf (Abutilon theophrasti); experiment: Test C greenhouse herbicide test, pre- and postemergence
# From the text: (§1) Seeds of plant species selected from blackgrass (Alopecurus myosuroides), ryegrass, Italian (Italian ryegrass, Lolium multiflorum), wheat (winter wheat, Triticum aestivum), galium (catchweed bedstraw, Galium aparine), corn (Zea mays), large crabgrass, large (large crabgrass, Digitaria sanguinalis), foxtail, giant (giant foxtail, Setaria faberii), johnsongrass (Sorghum halepense), lambsquarters (Chenopodium album), morningglory (Ipomoea coccinea), nutsedge, yellow (yellow nutsedge, Cyperus esculentus), pigweed (Amaranthus retroflexus), ragweed (common ragweed, Ambrosia elatior), soybean (Glycine max), barnyardgrass (Echinochloa crus-galli), oilseed rape (Brassica napus), waterhemp (common waterhemp, Amaranthus rudis), and velvetleaf (Abutilon theophrasti) were planted into a blend of loam soil and sand and treated preemergence with test chemicals formulated in a non-phytotoxic solvent mixture which included a surfactant.
# (§2) At the same time, plants selected from these crop and weed species and also chickweed (common chickweed, Stellaria media), kochia (Kochia scoparia), and oat, wild (wild oat, Avena fatua), were planted in pots containing Redi-Earth® planting medium (Scotts Company, 14111 Scottslawn Road, Marysville, Ohio 43041) comprising spaghnum peat moss, vermiculite, wetting agent and starter nutrients and treated with postemergence applications of test chemicals formulated in the same manner. Plants ranged in height from 2 to 18 cm (1- to 4-leaf stage) for postemergence treatments. Treated plants and controls were maintained in a greenhouse for 13 to 15 d, after which time all species were compared to controls and visually evaluated. Plant response ratings, summarized in Table C, are based on a scale of 0 to 100 where 0 is no effect and 100 is complete control. A dash (-) response means no test result.
# [2] = system: barnyardgrass (Echinochloa crus-galli); experiment: as above
# From the text: as §1, §2
# [3] = system: galium (catchweed bedstraw, Galium aparine); experiment: as above
# From the text: as §1, §2
# [4] = system: wheat (Triticum aestivum); experiment: Test A greenhouse herbicide test, pre- and postemergence; conditions: Postemergence
# Method in brief: (§3)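 Visual injury ratings, 0 (no effect) to 100 (complete control), versus untreated plants after roughly 10 d in a greenhouse. Compounds, formulated in a surfactant-containing non-phytotoxic solvent, were sprayed on loam–sand soil after sowing (pre) or on one- to two-leaf plants 2–10 cm tall (post).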
# [5] = system: ragweed (common ragweed, Ambrosia elatior); experiment: as above
# Method in brief: as §3
# corn (Zea mays) = experiment: as above; conditions: Postemergence
# Method in brief: as §3
# [6] = system: barnyardgrass (Echinochloa crus-galli); experiment: as above
# Method in brief: as §3
# [7] = system: foxtail, giant (giant foxtail, Setaria faberii); experiment: as above
# Method in brief: as §3
# [8] = system: ryegrass, Italian (Italian ryegrass, Lolium multiflorum); experiment: as above
# Method in brief: as §3
# kochia (Kochia scoparia) = experiment: as above
# Method in brief: as §3
# [9] = system: pigweed (Amaranthus retroflexus); experiment: as above
# Method in brief: as §3
# [10] = Postemergence, 125 g ai/ha, scale 0 to 100, 0 is no effect, 100 is complete control
# [11] = Postemergence, 250 g ai/ha, scale 0 to 100, 0 no effect, 100 complete control, 13 to 15 d
# [12] = postemergence, 62 g ai/ha, scale 0 to 100, 0 no effect, 100 complete control
# [13] = Postemergence, 31 g ai/ha, 0 to 100 scale (0 no effect, 100 complete control)
# [14] = 125 g ai/ha, 0 to 100 scale where 0 is no effect and 100 is complete control
# [15] = 500 g ai/ha, visual rating after approx. 10 d, 0 to 100 scale (0 no effect, 100 complete control)
# [16] = Postemergence, 125 g ai/ha, 0 to 100 scale where 0 is no effect and 100 is complete control
# [17] = Postemergence, 500 g ai/ha, visual rating after approx. 10 d, 0 to 100 scale (0 no effect, 100 complete control)
# [18] = Preemergence, 125 g ai/ha, 0 to 100 scale where 0 is no effect and 100 is complete control
# [19] = Preemergence, 500 g ai/ha, 0 to 100 scale where 0 is no effect and 100 is complete control
# [20] = Postemergence, 500 g ai/ha, 0 to 100 scale, 0 is no effect, 100 is complete control
# [21] = Postemergence, 31 g ai/ha, scale 0 to 100 (0 no effect, 100 complete control)
# [22] = Postemergence, 62 g ai/ha, 0 to 100 scale (0 no effect, 100 complete control)
# [23] = postemergence, 125 g ai/ha, scale 0 to 100, 0 no effect, 100 complete control
# [24] = 125 g ai/ha, 0 to 100 scale, 0 no effect, 100 complete control
# [25] = Postemergence, 125 g ai/ha, 0 to 100 scale, 0 no effect, 100 complete control
# [26] = Preemergence, 125 g ai/ha, visual injury rating, 0 to 100 scale (0 no effect, 100 complete control), approx. 10 d
# [27] = Postemergence, 16 g ai/ha, scale 0 to 100 (0 no effect, 100 complete control)
structure (smiles),measurement,setting,value
COc1nn(C)c(=O)c(-c2c(C)sc3ccc(Cl)cc23)c1O [Compound 100],"Plant response rating, Velvetleaf",[1]; [10],40
same,"Plant response rating, Velvetleaf",[1]; [11],65
same,Velvetleaf plant response rating,[1]; [12],50
same,Barnyardgrass plant response rating,[2]; [13],10
same,"Plant response rating, Barnyardgrass",[2]; [10],30
same,"Plant response rating, Barnyardgrass",[2]; [11],40
same,Barnyardgrass plant response rating,[2]; [12],25
same,"Plant response rating, Galium",[3]; [10],95
same,"Plant response rating, Galium",[3]; [11],95
same,Galium plant response rating,[3]; [12],95
same,"Plant response rating, Wheat",[4]; [14],0
same,"Plant response rating, Wheat",[4]; [15],20
same,"Plant response rating, Ragweed",[5]; [16],90
same,"Plant response rating, Ragweed",[5]; [17],90
same,Ragweed plant response rating,[5]; [18],40
same,"Plant response rating, Ragweed",[5]; [19],80
same,"Plant response rating, Corn",corn (Zea mays); [14],0
same,"Plant response rating, Corn",corn (Zea mays); [15],20
same,"Plant response rating, Barnyardgrass",[6]; [16],30
same,Barnyardgrass plant response rating,[6]; [20],30
same,Barnyardgrass plant response rating,[6]; [18],20
same,"Plant response rating, Barnyardgrass",[6]; [19],20
same,"Plant response rating, Foxtail, Giant",[7]; [16],80
same,"Plant response rating, Foxtail, Giant",[7]; [17],80
same,"Foxtail, Giant plant response rating",[7]; [18],70
same,"Plant response rating, Foxtail, Giant",[7]; [19],90
same,"Plant response rating, Ryegrass, Italian",[8]; [16],90
same,"Plant response rating, Ryegrass, Italian",[8]; [17],100
same,"Ryegrass, Italian plant response rating",[8]; [18],90
same,"Plant response rating, Ryegrass, Italian",[8]; [19],100
same,"Plant response rating, Kochia",kochia (Kochia scoparia); [16],70
same,"Plant response rating, Kochia",kochia (Kochia scoparia); [17],100
same,Kochia plant response rating,kochia (Kochia scoparia); [18],30
same,"Plant response rating, Kochia",kochia (Kochia scoparia); [19],70
same,"Plant response rating, Pigweed",[9]; [16],80
same,"Plant response rating, Pigweed",[9]; [17],90
same,Pigweed plant response rating,[9]; [18],100
same,"Plant response rating, Pigweed",[9]; [19],100
COC(=O)Oc1c(C)nn(C)c(=O)c1-c1c([N+](=O)[O-])ccc2ccccc12 [Compound 162],"Plant response rating, Velvetleaf",[1]; [21],5
same,Velvetleaf plant response rating,[1]; [22],15
same,"Plant response rating, Velvetleaf",[1]; [11],70
same,Velvetleaf plant response rating,[1]; [23],30
same,"Plant response rating, Barnyardgrass",[2]; [21],10
same,Barnyardgrass plant response rating,[2]; [22],20
same,"Plant response rating, Barnyardgrass",[2]; [11],25
same,Barnyardgrass plant response rating,[2]; [23],25
same,"Plant response rating, Galium",[3]; [21],90
same,Galium plant response rating,[3]; [22],90
same,"Plant response rating, Galium",[3]; [11],98
same,Galium plant response rating,[3]; [23],95
same,"Plant response rating, Wheat",[4]; [24],0
same,"Plant response rating, Wheat",[4]; [15],20
same,"Plant response rating, Ragweed",[5]; [25],80
same,"Plant response rating, Ragweed",[5]; [17],100
same,"Plant response rating, Ragweed",[5]; [26],50
same,"Plant response rating, Ragweed",[5]; [19],90
same,"Plant response rating, Corn",corn (Zea mays); [24],20
same,"Plant response rating, Corn",corn (Zea mays); [15],30
same,"Plant response rating, Barnyardgrass",[6]; [25],20
same,"Plant response rating, Barnyardgrass",[6]; [17],50
same,"Plant response rating, Barnyardgrass",[6]; [26],10
same,"Plant response rating, Barnyardgrass",[6]; [19],20
same,"Plant response rating, Foxtail, Giant",[7]; [25],20
same,"Plant response rating, Foxtail, Giant",[7]; [17],40
same,"Plant response rating, Foxtail, Giant",[7]; [26],10
same,"Plant response rating, Foxtail, Giant",[7]; [19],40
same,"Plant response rating, Ryegrass, Italian",[8]; [25],60
same,"Plant response rating, Ryegrass, Italian",[8]; [17],90
same,"Plant response rating, Ryegrass, Italian",[8]; [26],40
same,"Plant response rating, Ryegrass, Italian",[8]; [19],100
same,"Plant response rating, Kochia",kochia (Kochia scoparia); [25],70
same,"Plant response rating, Kochia",kochia (Kochia scoparia); [17],90
same,"Plant response rating, Kochia",kochia (Kochia scoparia); [26],60
same,"Plant response rating, Kochia",kochia (Kochia scoparia); [19],90
same,"Plant response rating, Pigweed",[9]; [25],80
same,"Plant response rating, Pigweed",[9]; [17],90
same,"Plant response rating, Pigweed",[9]; [26],80
same,"Plant response rating, Pigweed",[9]; [19],90
COC(=O)Oc1cnn(C)c(=O)c1-c1c(C)ccc2ccccc12 [Compound 143],"Plant response rating, Velvetleaf",[1]; [27],30
same,"Plant response rating, Velvetleaf",[1]; [21],20
same,Velvetleaf plant response rating,[1]; [22],25
same,Velvetleaf plant response rating,[1]; [23],50
same,"Plant response rating, Barnyardgrass",[2]; [27],15
same,"Plant response rating, Barnyardgrass",[2]; [21],20
same,Barnyardgrass plant response rating,[2]; [22],25
same,"Plant response rating, Barnyardgrass",[2]; [10],30
same,"Plant response rating, Galium",[3]; [27],60
same,"Plant response rating, Galium",[3]; [21],65
same,Galium plant response rating,[3]; [22],90
same,Galium plant response rating,[3]; [23],90
same,"Plant response rating, Wheat",[4]; [14],0
same,"Plant response rating, Wheat",[4]; [15],50
same,"Plant response rating, Ragweed",[5]; [16],70
same,"Plant response rating, Ragweed",[5]; [17],70
same,"Plant response rating, Ragweed",[5]; [19],90
same,"Plant response rating, Corn",corn (Zea mays); [14],0
same,"Plant response rating, Corn",corn (Zea mays); [15],20
same,"Plant response rating, Barnyardgrass",[6]; [16],20
same,"Plant response rating, Barnyardgrass",[6]; [17],60
same,Barnyardgrass plant response rating,[6]; [18],20
same,"Plant response rating, Barnyardgrass",[6]; [19],80
same,"Plant response rating, Foxtail, Giant",[7]; [16],20
same,"Plant response rating, Foxtail, Giant",[7]; [17],60
same,"Foxtail, Giant plant response rating",[7]; [18],20
same,"Plant response rating, Foxtail, Giant",[7]; [19],70
same,"Plant response rating, Ryegrass, Italian",[8]; [16],80
same,"Plant response rating, Ryegrass, Italian",[8]; [17],100
same,"Plant response rating, Ryegrass, Italian",[8]; [19],100
same,"Plant response rating, Kochia",kochia (Kochia scoparia); [16],70
same,"Plant response rating, Kochia",kochia (Kochia scoparia); [17],90
same,Kochia plant response rating,kochia (Kochia scoparia); [18],10
same,"Plant response rating, Kochia",kochia (Kochia scoparia); [19],70
same,"Plant response rating, Pigweed",[9]; [16],90
same,"Plant response rating, Pigweed",[9]; [17],90
same,Pigweed plant response rating,[9]; [18],80
same,"Plant response rating, Pigweed",[9]; [19],100
CC(=O)Oc1c(C#N)nn(C)c(=O)c1-c1c(C)ccc2ccccc12 [Compound 98],"Plant response rating, Velvetleaf",[1]; [10],75
same,"Plant response rating, Velvetleaf",[1]; [11],100
same,Velvetleaf plant response rating,[1]; [12],70
same,Barnyardgrass plant response rating,[2]; [13],60
same,"Plant response rating, Barnyardgrass",[2]; [10],98
same,"Plant response rating, Barnyardgrass",[2]; [11],98
same,Barnyardgrass plant response rating,[2]; [12],85
same,"Plant response rating, Galium",[3]; [10],98
same,"Plant response rating, Galium",[3]; [11],98
same,Galium plant response rating,[3]; [12],95
same,"Plant response rating, Wheat",[4]; [14],30
same,"Plant response rating, Wheat",[4]; [15],30
same,"Plant response rating, Ragweed",[5]; [16],100
same,"Plant response rating, Ragweed",[5]; [17],100
same,Ragweed plant response rating,[5]; [18],60
same,"Plant response rating, Ragweed",[5]; [19],90
same,"Plant response rating, Corn",corn (Zea mays); [14],20
same,"Plant response rating, Corn",corn (Zea mays); [15],20
same,"Plant response rating, Barnyardgrass",[6]; [16],90
same,Barnyardgrass plant response rating,[6]; [20],90
same,Barnyardgrass plant response rating,[6]; [18],40
same,"Plant response rating, Barnyardgrass",[6]; [19],100
same,"Plant response rating, Foxtail, Giant",[7]; [16],90
same,"Plant response rating, Foxtail, Giant",[7]; [17],100
same,"Foxtail, Giant plant response rating",[7]; [18],90
same,"Plant response rating, Foxtail, Giant",[7]; [19],100
same,"Plant response rating, Ryegrass, Italian",[8]; [16],90
same,"Plant response rating, Ryegrass, Italian",[8]; [17],100
same,"Ryegrass, Italian plant response rating",[8]; [18],20
same,"Plant response rating, Ryegrass, Italian",[8]; [19],90
same,"Plant response rating, Kochia",kochia (Kochia scoparia); [16],30
same,"Plant response rating, Kochia",kochia (Kochia scoparia); [17],60
same,Kochia plant response rating,kochia (Kochia scoparia); [18],20
same,"Plant response rating, Kochia",kochia (Kochia scoparia); [19],40
same,"Plant response rating, Pigweed",[9]; [16],100
same,"Plant response rating, Pigweed",[9]; [17],100
same,Pigweed plant response rating,[9]; [18],100
same,"Plant response rating, Pigweed",[9]; [19],100
